PubChem BioAssay (NCI)
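Dose response: 5 concentrations. Exposure: 48 h. Format: 96-well plates. Endpoint: linear interpolation; highest concentration if not reached. TGI denotes the concentration required for complete inhibition of growth.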

Experiments:
Experiment in all cases: NCI-60 cell line screen, 48 h
SR leukemia = test system: SR leukemia
UACC-62 melanoma = test system: UACC-62 melanoma
HCT-116 colon = test system: HCT-116 colon
IGROV1 ovarian = test system: IGROV1 ovarian
SK-MEL-5 melanoma = test system: SK-MEL-5 melanoma
NCI-H226 lung = test system: NCI-H226 lung
SNB-78 CNS = test system: SNB-78 CNS
SNB-19 CNS = test system: SNB-19 CNS
M19-MEL melanoma = test system: M19-MEL melanoma
NCI-H23 lung = test system: NCI-H23 lung
KM20L2 colon = test system: KM20L2 colon
KM12 colon = test system: KM12 colon
HOP-92 NSCLC = test system: HOP-92 NSCLC
UACC-257 melanoma = test system: UACC-257 melanoma
K-562 leukemia = test system: K-562 leukemia
UO-31 renal = test system: UO-31 renal
U251 CNS = test system: U251 CNS
ACHN renal = test system: ACHN renal
HOP-62 NSCLC = test system: HOP-62 NSCLC
SK-OV-3 ovarian = test system: SK-OV-3 ovarian
HCT-15 colon = test system: HCT-15 colon
SNB-75 CNS = test system: SNB-75 CNS
RXF 393 renal = test system: RXF 393 renal
HOP-18 NSCLC = test system: HOP-18 NSCLC
CCRF-CEM leukemia = test system: CCRF-CEM leukemia
SF-268 CNS = test system: SF-268 CNS
A549 NSCLC = test system: A549 NSCLC
DMS 273 small cell lung = test system: DMS 273 small cell lung
OVCAR-4 ovarian = test system: OVCAR-4 ovarian
OVCAR-5 ovarian = test system: OVCAR-5 ovarian
COLO 205 colon = test system: COLO 205 colon
CAKI-1 renal = test system: CAKI-1 renal
A498 renal = test system: A498 renal
SF-295 CNS = test system: SF-295 CNS
SF-539 CNS = test system: SF-539 CNS
XF 498 CNS = test system: XF 498 CNS
DMS 114 small cell lung = test system: DMS 114 small cell lung
TK-10 renal = test system: TK-10 renal
NCI-H460 lung = test system: NCI-H460 lung
SW-620 colon = test system: SW-620 colon
HCC-2998 colon = test system: HCC-2998 colon
NCI-H522 lung = test system: NCI-H522 lung
HL-60(TB) leukemia = test system: HL-60(TB) leukemia
MOLT-4 leukemia = test system: MOLT-4 leukemia
MALME-3M melanoma = test system: MALME-3M melanoma
RPMI-8226 leukemia = test system: RPMI-8226 leukemia
OVCAR-8 ovarian = test system: OVCAR-8 ovarian
M14 melanoma = test system: M14 melanoma
SK-MEL-28 melanoma = test system: SK-MEL-28 melanoma
SN12C renal = test system: SN12C renal
786-0 renal = test system: 786-0 renal
SK-MEL-2 melanoma = test system: SK-MEL-2 melanoma
OVCAR-3 ovarian = test system: OVCAR-3 ovarian
HT29 colon = test system: HT29 colon
LOX IMVI melanoma = test system: LOX IMVI melanoma
EKVX NSCLC = test system: EKVX NSCLC
DLD-1 colon = test system: DLD-1 colon
LXFL 529 NSCLC = test system: LXFL 529 NSCLC

Measured: TGI

CCOC(=O)C1=C(O)C(=O)c2ccoc2C1=O
not listed: DLD-1 colon | LXFL 529 NSCLC
> 100 µM: all other assays above

COc1ccc(NC(=O)c2oc3cc(O)ccc3c(=O)c2C)c([N+](=O)[O-])c1
not listed: RPMI-8226 leukemia
> 100 µM: all other assays above
